{"source": "ChEMBL document CHEMBL1123331", "about": "“Synthesis of pyrimidin-2-one nucleosides as acid-stable inhibitors of cytidine deaminase” (J Med Chem, 1986)", "key": {"Cytidine deaminase": {"target": "Cytidine deaminase (Mus musculus, UniProt P56389)", "sequence (P56389 whole entry)": "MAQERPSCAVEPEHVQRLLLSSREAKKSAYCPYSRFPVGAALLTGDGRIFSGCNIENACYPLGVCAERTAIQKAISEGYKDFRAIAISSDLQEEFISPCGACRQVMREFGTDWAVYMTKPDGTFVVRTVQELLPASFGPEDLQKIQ", "test": "Compound was tested for the inhibitory constant for mouse kidney cytidine deaminase"}, "Adenosine deaminase": {"target": "T1, Adenosine deaminase (Mus musculus, UniProt P03958)", "T1 sequence (P03958 whole entry)": "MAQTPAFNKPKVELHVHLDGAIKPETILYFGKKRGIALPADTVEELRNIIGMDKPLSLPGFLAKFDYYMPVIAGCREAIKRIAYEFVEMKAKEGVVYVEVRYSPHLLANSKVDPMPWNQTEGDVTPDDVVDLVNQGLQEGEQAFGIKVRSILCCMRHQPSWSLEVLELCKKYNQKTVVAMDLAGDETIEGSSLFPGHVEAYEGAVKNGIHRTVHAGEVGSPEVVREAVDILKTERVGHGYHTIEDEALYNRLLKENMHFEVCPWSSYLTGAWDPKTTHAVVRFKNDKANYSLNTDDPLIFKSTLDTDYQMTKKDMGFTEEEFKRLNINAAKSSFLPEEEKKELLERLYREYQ", "test": "Compound was tested for the inhibitory constant for adenosine deaminase (ADA)"}}}
{"smiles": "O=c1nc(CO)ccn1C1O[C@H](CO)[C@@H](O)[C@H]1O", "note": "(stereo partly drawn)", "values": [{"measurement": "Ki", "setting": "Cytidine deaminase", "result": 100, "unit": "µM"}]}
{"smiles": "O=C1NCC=CN1[C@@H]1O[C@H](CO)[C@@H](O)[C@H]1O", "values": [{"measurement": "Ki", "setting": "Cytidine deaminase", "result": 4, "unit": "µM"}]}
{"smiles": "O=C1NC=CCN1C1O[C@H](CO)[C@@H](O)[C@H]1O", "note": "(stereo partly drawn)", "values": [{"measurement": "Ki", "setting": "Cytidine deaminase", "result": 4, "unit": "µM"}]}
{"smiles": "OCC1NC=Nc2c1ncn2[C@@H]1O[C@H](CO)[C@@H](O)[C@H]1O", "note": "(stereo partly drawn)", "values": [{"measurement": "Ki", "setting": "Cytidine deaminase", "result": 10, "unit": "µM"}]}
{"smiles": "O=C1NC(C(O)O)CCN1C1O[C@H](CO)[C@@H](O)[C@H]1O", "note": "(stereo partly drawn)", "values": [{"measurement": "Ki", "setting": "Cytidine deaminase", "result": 20, "unit": "µM"}]}
{"smiles": "OC[C@H]1O[C@@H](n2cnc3cncnc32)[C@H](O)[C@@H]1O", "note": "[NEBULARINE]", "values": [{"measurement": "Ki", "setting": "Cytidine deaminase", "result": 10, "unit": "µM"}]}
{"smiles": "O=C1NC(CO)C=CN1C1O[C@H](CO)[C@@H](O)[C@H]1O", "note": "(stereo partly drawn)", "values": [{"measurement": "Ki", "setting": "Cytidine deaminase", "result": 0.4, "unit": "µM"}]}
{"smiles": "O=c1ncccn1[C@@H]1O[C@H](CO)[C@@H](O)[C@H]1O", "note": "[ZEBULARINE]", "values": [{"measurement": "Ki", "setting": "Adenosine deaminase", "result": 1, "unit": "µM"}]}
